Experimental findings from BindingDB's records for doi:10.1021/jm300185p (Takeda Pharmaceutical, 2012) are described below.

In the test the target is Mitogen-activated protein kinase kinase kinase 7 (TAK1 kinase) (Homo sapiens) (UniProt O43318). The test is described as follows: Inhibition of N-terminus FLAG-tagged TAK1 expressed in baculovirus expression system using [gamma-33P]-ATP measured after 60 mins by scintillation counting.
Chain of Mitogen-activated protein kinase kinase kinase 7 (TAK1 kinase) (Homo sapiens) (O43318 whole entry, looked up): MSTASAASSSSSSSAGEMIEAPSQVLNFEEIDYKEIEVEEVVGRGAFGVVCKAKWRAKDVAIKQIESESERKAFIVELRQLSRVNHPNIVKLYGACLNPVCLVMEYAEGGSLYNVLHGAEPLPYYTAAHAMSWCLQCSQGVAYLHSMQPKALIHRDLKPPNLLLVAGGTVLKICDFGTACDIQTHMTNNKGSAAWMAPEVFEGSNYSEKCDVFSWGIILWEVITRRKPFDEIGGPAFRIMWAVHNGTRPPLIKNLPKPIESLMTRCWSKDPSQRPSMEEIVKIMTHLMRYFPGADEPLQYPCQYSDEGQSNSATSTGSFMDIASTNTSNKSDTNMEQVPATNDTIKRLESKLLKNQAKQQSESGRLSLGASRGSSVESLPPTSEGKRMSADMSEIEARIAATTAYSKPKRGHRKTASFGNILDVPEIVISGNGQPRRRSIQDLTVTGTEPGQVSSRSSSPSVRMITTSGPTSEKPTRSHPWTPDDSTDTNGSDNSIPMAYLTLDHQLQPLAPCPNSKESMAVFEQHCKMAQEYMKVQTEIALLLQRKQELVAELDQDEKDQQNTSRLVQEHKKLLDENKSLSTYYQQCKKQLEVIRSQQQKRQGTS

For the compound `CC(C)(N)C(=O)NCCn1ccc2ncnc(Nc3ccc(Oc4cccc5sncc45)c(Cl)c3)c21`, the IC50 – broadly, the midpoint of a concentration-inhibition curve – was greater than 10 µM.
